The source of these data is patent US9771369B2, “Compounds and methods for kinase modulation, and indications therefor” (Plexxikon Inc., priority 2014, dated 2017).

One test has as its target c-kit mutant D816V (Homo sapiens (Human), UniProt P10721, D816V/DEL694-753). Briefly: c-Kit mutant D816V biochemical assay (AlphaScreen kinase activity). The essentials:
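Recombinant His-tagged c-Kit D816V kinase domain (residues 551-934, insert 694-753 deleted, E. coli-expressed) phosphorylating 30 nM biotin-(E4Y)10 with 10 μM ATP, HEPES pH 7.2, Mg/Mn, 5% DMSO; 30 min, room temperature. Phosphorylation detected by AlphaScreen (streptavidin donor/PY30 acceptor beads); IC50 from 8-point 1:3 series.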

The subject of test [1] is BaF3-FL KIT D816V or BaF3-FL KIT V560G/D816V cell line. Briefly: Cell-based assays of c-Kit mutant kinase activity (cell proliferation, ATPlite). The note with it: at least one of the c-kit cell assays of Example 7. The essentials:
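BaF3 cells dependent on transfected full-length human KIT D816V or V560G/D816V (pCI-Neo, CMV promoter) were seeded at 1×10^4 cells/well and exposed to 8-point 1:3 dilutions from 10 μM top (0.2% DMSO) for three days at 37° C. ATPlite luminescence gave cell number; IC50 from concentration-response.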

Sequence of c-kit mutant D816V (P10721 other isoform, or with tags, fused parts or gaps D816V/del 694-753): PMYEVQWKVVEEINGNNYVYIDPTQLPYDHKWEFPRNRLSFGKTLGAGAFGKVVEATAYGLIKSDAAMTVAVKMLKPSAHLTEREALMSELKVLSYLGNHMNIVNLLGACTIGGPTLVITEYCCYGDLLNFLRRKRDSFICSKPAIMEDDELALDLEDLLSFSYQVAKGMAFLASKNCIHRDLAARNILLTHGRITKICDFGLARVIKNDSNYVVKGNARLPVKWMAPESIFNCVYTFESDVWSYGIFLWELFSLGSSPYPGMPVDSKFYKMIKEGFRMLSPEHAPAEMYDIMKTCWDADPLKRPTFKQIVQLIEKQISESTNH

Turning to `Cc1nc(C2CCN(c3ncnc4[nH]c(-c5ccc(F)cc5)cc34)CC2)[nH]c1-c1ccc(F)cc1` [P-3006, 6-(4-fluorophenyl)-4-[4-[5-(4-fluorophenyl)-4-methyl-1H-imidazol-2-yl]-1-piperidyl]-7H-pyrrolo[2,3-d]pyrimidine], the half-maximal inhibitory concentration (IC50) against c-kit mutant D816V is 0.0001 to 1 µM; in test [1], under 10000 nM.

As to `Cc1ccc(-c2[nH]c(C3CCN(c4ncnc5[nH]c(-c6ccc(C#N)cc6)cc45)CC3)nc2C)cc1` [P-3089, 4-[4-[4-[4-methyl-5-(p-tolyl)-1H-imidazol-2-yl]-1-piperidyl]-7H-pyrrolo[2,3-d]pyrimidin-6-yl]benzonitrile], the IC50 was 0.0001 to 1 µM against c-kit mutant D816V and under 10000 nM in test [1].

Regarding `Cc1ccc(-c2[nH]c(C3CCN(c4ncnc5[nH]c(-c6ccc(C#N)cc6)cc45)CC3)nc2C)s1` [P-3090, 4-[4-[4-[4-methyl-5-(5-methyl-2-thienyl)-1H-imidazol-2-yl]-1-piperidyl]-7H-pyrrolo[2,3-d]pyrimidin-6-yl]benzonitrile], the values for the IC50 (against c-kit mutant D816V; in test [1]) were 0.0001 to 1 µM and under 10000 nM, respectively.

As for `COc1cc(-c2cc3c(N4CCC(c5nc(C)c(-c6ccc(OC(C)C)cc6)[nH]5)CC4)ncnc3[nH]2)ccn1` [P-3091, 4-[4-[5-(4-isopropoxyphenyl)-4-methyl-1H-imidazol-2-yl]-1-piperidyl]-6-(2-methoxy-4-pyridyl)-7H-pyrrolo[2,3-d]pyrimidine], the 50% inhibitory concentration (IC50) against c-kit mutant D816V is 0.0001 to 1 µM; in test [1] it was under 10000 nM.

Turning to `Cc1nc(C2CCN(c3ncnc4[nH]c(-c5ccc(F)cc5)cc34)CC2)[nH]c1-c1ccc(OC(C)C)cc1` [P-3092, 6-(4-fluorophenyl)-4-[4-[5-(4-isopropoxyphenyl)-4-methyl-1H-imidazol-2-yl]-1-piperidyl]-7H-pyrrolo[2,3-d]pyrimidine], the IC50 against c-kit mutant D816V is 0.0001 to 1 µM; in test [1] it was under 10000 nM.

In the case of `Cc1nc(C2CCN(c3ncnc4[nH]c(-c5ccc(C#N)cc5)cc34)CC2)[nH]c1-c1ccc(OC(C)C)cc1` [P-3093, 4-[4-[4-[5-(4-isopropoxyphenyl)-4-methyl-1H-imidazol-2-yl]-1-piperidyl]-7H-pyrrolo[2,3-d]pyrimidin-6-yl]benzonitrile], the 50% inhibitory concentration (IC50) at c-kit mutant D816V is 0.0001 to 1 µM; in test [1], under 10000 nM.

Turning to `CCOc1cc(-c2[nH]c(C3CCN(c4ncnc5[nH]c(-c6ccc(F)cc6)cc45)CC3)nc2C)ccc1C` [P-3094, 4-[4-[5-(3-ethoxy-4-methyl-phenyl)-4-methyl-1H-imidazol-2-yl]-1-piperidyl]-6-(4-fluorophenyl)-7H-pyrrolo[2,3-d]pyrimidine], the results for the IC50 (against c-kit mutant D816V; in test [1]) were 0.0001 to 1 µM and under 10000 nM, respectively.

The term IC50 denotes the concentration that inhibits the measured activity by half. Low values mean greater potency, high ones weaker potency.
